Measured values as given in US20050019836A1, “Bioanalytical reagent, method for production thereof, sensor platforms and detection methods based on use of said bioanalytical reagent” (priority 2000, published 2005).

Legend:
5HT3A receptor [1] = target: T1, 5HT3A receptor (Mus musculus, UniProt P23979); experiment: fluorescent ligand binding to surface-immobilized "native" vesicles (confocal fluorescence microscopy); conditions: individual discrete immobilized vesicles (n=3) from HEK293 cells; fit with Langmuir isotherm; read-out: dissociation constant Kd
T1 construct: Transient expression of the full wild-type receptor was achieved by co-transfection; expressed in transfected cells; host or cells: HEK293
T1 sequence (P23979 24-489): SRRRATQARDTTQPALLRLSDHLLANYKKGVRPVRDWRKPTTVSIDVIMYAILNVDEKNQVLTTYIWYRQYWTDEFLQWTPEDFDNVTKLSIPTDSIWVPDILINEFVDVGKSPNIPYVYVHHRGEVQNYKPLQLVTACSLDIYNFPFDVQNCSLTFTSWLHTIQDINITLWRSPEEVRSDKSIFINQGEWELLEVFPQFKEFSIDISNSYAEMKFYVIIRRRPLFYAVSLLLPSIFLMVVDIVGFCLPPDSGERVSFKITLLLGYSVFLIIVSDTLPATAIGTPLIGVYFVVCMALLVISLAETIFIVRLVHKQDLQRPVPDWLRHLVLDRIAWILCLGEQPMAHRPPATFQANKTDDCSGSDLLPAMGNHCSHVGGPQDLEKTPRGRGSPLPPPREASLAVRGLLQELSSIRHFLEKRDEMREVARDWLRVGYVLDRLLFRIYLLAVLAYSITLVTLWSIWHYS
Description: The ligand-binding experiments in surface-immobilized vesicles were carried out using the fluorescence-labeled ligand GR-Cy5. For these experiments, a homologous serotonin receptor construct 5HT3A was used that was expressed with an EGFP (Enhanced Green Fluorescent Protein, Clontech) fused at the end of a subunit. The prepared “native” vesicles were immobilized on cover glasses by means of physical adsorption of the vesicles to the glasses, by two-hour or overnight incubation of typically 400 μl of a vesicle preparation solution prepared according to the above method in 6-well plates with cover glasses on the bottom at 4° C. […]
The affinity of the fluorescent ligand for receptors bound to individual, discrete vesicles was determined by sequential addition of ascending concentrations of the fluorescent ligand to one and the same cover glass with vesicles immobilized thereon by overnight incubation. […]
The fluorescence intensities of the ligand were measured with a confocal fluorescence microscope (Zeiss, Laser Scanning Microscope LSM510), using a suitable filter set. The fluorescence signal of the GFP additionally incorporated into the vesicles was used in each case to adjust the microscope to the working distance of the plane in which the vesicles lay before the ligand was added. […]

5HT3A receptor [2] = target: T1, 5HT3A receptor; experiment: competitive radiological binding assay with [3H]-GR65630, receptor in "native" vesicles in solution
Description: To this end, samples of said reagent were incubated with the vesicles in solution for 60 minutes at room temperature with 1.5 nM of the tritium-labeled ligand [^3H]-GR65630 in 240 μl HEPES buffer (10 mM HEPES, pH 7.4) (HEPES: 4-(2-hydroxyethyl)piperazine-1-ethanesulfonic acid) in 96-well MultiScreen plates (Millipore, F-Molsheim). The incubation was completed by rapid filtration followed by washing 3 times with 300 μl of ice-cold HEPES buffer each time. The filters were transferred to scintillation vessels and each taken up in 1 ml of Ultima Gold TM (Packard, meridan, USA). The radioactivity was measured using a TriCarb 2200CA liquid scintillation counter. The extent of nonspecific binding to the receptor and to the vesicles was estimated in the presence of a high surplus of quipazine (1 μM). The dissociation constant Kd was determined from Scatchard plots in 6 different concentrations of the ligand [^3H]-GR65630. […] All experiments were carried out in duplicate.

5HT3A receptor [3] = target: T1, 5HT3A receptor; experiment: competitive radiological binding assay with [3H]-GR65630, receptor in whole mother cells
5HT3A serotonin receptor = target: T2, 5HT3A serotonin receptor (Mus musculus, UniProt P23979); experiment: agonist-induced calcium signal (Fluo-3) in "native" vesicles with incorporated 5HT3A receptor; format: cell-based; conditions: 350 μM agonist; Fluo-3 loaded vesicles
T2 construct: expressed in transfected cells; host or cells: HEK cells
T2 sequence (P23979 24-489): T1 sequence (P23979 24-489)
Description: In this case, the original HEK cells from which the vesicles were obtained following the addition of cytochalasin according to the method described hereinabove were loaded with the acetoxymethyl ester of Fluo-3 as calcium indicator (generally 20 μg Fluo-3 in 500 μl DMEM/F12 medium). The prepared vesicles contained said fluorescent calcium indicator and parts of the endoplasmic reticulum in addition to the 5HT3A receptor.
Fluorescence excitation of the Fluo-3 was performed at 488 nm. The emission was measured at 500-530 nm. The vesicles loaded with Fluo-3 were then stimulated with 350 μM m-chlorophenylbiguanide hydrochloride (mCPG), a receptor-specific agonist. Stimulation was performed by addition of the agonist to the vesicle medium (t=0 sec). The maximum fluorescence signal that occurred through binding of the calcium to the calcium indicator Fluo-3 was already measured less than one minute after addition of the agonist. The value amounted to 35 μM free calcium ions in the vesicle interior, i.e. in the cytosol surrounded by the vesicle. With the aid of calcium indicator Fluo-3, free calcium ions are detected only in the cytosol (vesicle lumen) transferred from the cell of origin. Calcium ions in the endoplasmic reticulum or in other cell organelles or parts of cell organelles possibly included in the vesicle are not determined by this detection method.
The increase in the fluorescence signal up to its maximum value after less than one minute and the subsequent decrease in the fluorescence signal to its baseline value after a further 2 minutes, i.e. after a total of 3 minutes following addition of the agonist, is a sign of the intact functional capacity of the complete mechanism of the signal transduction cascade within the vesicle, i.e. of the ability of the vesicle to “buffer” the concentration of free calcium ions. This includes the action of sodium-calcium exchangers, in addition to the timespan until closure of the receptor's ion channel and desensitization mechanisms characteristic of serotonin.

[4] = vesicles from HEK293 cells in solution, competition with 1.5 nM [3H]-GR65630, 60 min, room temperature
[5] = HEK293 mother cells, competition with 1.5 nM [3H]-GR65630, 60 min, room temperature
[6] = vesicles from HEK293 cells in solution, competition with 1.5 nM [3H]-GR65630, 60 min, room temperature, read-out: pKi, receptor in "native" vesicles (converted)
[7] = HEK293 mother cells, competition with 1.5 nM [3H]-GR65630, 60 min, room temperature, read-out: pKi, receptor in mother cell (converted)

In the case of “1,2,3,9-tetrahydro-3-[(5-methyl-1H-imidazol-4-yl)methyl]-9-(3-amino-(N-rhodamineB-thiocarbamoyl)-propyl)-4H-carbazol-4-one [GR-Rho]”, the Kd (5HT3A receptor [1]) is reported as 4.2 nM.

Cc1[nH]cnc1CC1CCc2c(c3ccccc3n2CCCN)C1=O (stereo not shown) [GR-H] showed a Ki (5HT3A receptor [2]) of 0.2 nM and a Ki (5HT3A receptor [3]) of 0.0631 nM.

Compound Cc1nccn1CC1CCc2c(c3ccccc3n2C)C1=O (stereo not shown) [Ondansetron, 1,2,3,9-tetrahydro-9-methyl-3-[(2-methyl-1H-imidazol-1-yl)methyl]-4H-carbazol-4-one] has a Ki (5HT3A receptor [2]) of 2.51 nM and a Ki (5HT3A receptor [3]) of 3.16 nM.

With N=C(N)NC(=N)Nc1cccc(Cl)c1 [mCPBG, m-Chlorophenylbiguanide] the “pKi, receptor in "native" vesicles” value (5HT3A receptor [2]; [4]) was 8.3 ± 0.1 and the “pKi, receptor in mother cell” value (5HT3A receptor [3]; [5]) was 8.2 ± 0.1.

N=C(N)NC(=N)Nc1ccccc1 [PBG, Phenylbiguanide] gave a Ki (5HT3A receptor [2]; [6]) of 251 nM and a Ki (5HT3A receptor [3]; [7]) of 316 nM.

In the case of Cc1[nH]cnc1CCC(=O)c1cn(C)c2ccccc12 [[^3H]-GR65630], the “pKi, receptor in "native" vesicles” value (5HT3A receptor [2]; [4]) is reported as 9.4 ± 0.1 and the “pKi, receptor in mother cell” value (5HT3A receptor [3]; [5]) is reported as 9.0 ± 0.1.

Compound c1ccc2nc(N3CCNCC3)ccc2c1 [Quipazine, 2-(1-Piperazinyl)quinoline] has a Ki (5HT3A receptor [2]; [6]) of 0.398 nM and a Ki (5HT3A receptor [3]; [7]) of 0.501 nM.

Cl.N=C(N)NC(=N)Nc1cccc(Cl)c1 [mCPG, m-chlorophenylbiguanide hydrochloride] was tested, and the “free calcium ions in the vesicle interior at maximum fluorescence signal” value (5HT3A serotonin receptor) was 35 µM, the “time to maximum fluorescence signal after addition of the agonist” value (5HT3A serotonin receptor) was “less than one” and the “total time until decrease of fluorescence signal to baseline value after addition of the agonist” value (5HT3A serotonin receptor) was 3 min.
